# Assay results: patent US20190125735A1, “INHIBITION OF P38 MAPK FOR THE TREATMENT OF CANCER” (Board of Regents, The University of Texas System, priority 2015, published 2019)
# Like-named read-outs stand apart in the source and are kept apart here. Where a SMILES comes first, the peptide text is derived from it. The star is where a group is joined. Cbz = O=C(OCc1ccccc1)*
# Key:
# [1] = test system: BCR-ABL+ mouse ALL cells seeded on MSCs (OP9 cells); assay: Clinical compound library screen, imatinib-pretreated MSC / BCR-ABL+ ALL cell co-culture; format: cell-based
# Procedure: The effectiveness of the compounds was determined in preventing cluster formation by microscopy and the toxicity of the compounds by bioluminescence imaging of co-cultured MSCs and leukemic cells.
# The clinical compounds library was purchased from the John S. Dunn Gulf Coast Consortium for Chemical Genomics (Houston, Tex.). […] Then, luciferase-labeled BCR-ABL+ mouse ALL cells were seeded on to the MSCs. Treatment was continued for 1 day, and the samples were evaluated via phase-contrast microscopy for the formation of leukemic cell clusters underneath the pretreated MSCs. To determine the compounds' toxicity in MSCs or leukemic cells, we examined the MSC/ALL cell co-cultures via microscopy and/or bioluminescence imaging.
# Phase-contrast images of co-cultured MSCs and ALL cells were obtained using an Axio Observer.Z1 microscope, an AxioCam MR camera, and AxioVision software (Zeiss, Oberkochen, Germany). For screening, a cluster was defined as a group of more than five leukemic cells under the MSCs. The total number of leukemic cell clusters was the average number of clusters from three different fields (10× objective). For post-screening experiments, a cluster was defined as a group of more than 10 leukemic cells under the MSCs. The total number of leukemic cell clusters was the average number of clusters from 10 different fields (10× objective).
# DU145 cells [2] = assay: MTS cell survival assay, DU145 cells; format: cell-based, human
# Procedure: (§1) Immunoblotting, Immunofluorescence, RTPCR, wound healing- and tumorsphere assays were performed as previously described (Sarkar et al., 2015). Cell viability (MTS) was assessed using the CellTiter96 Aqueous One-Solution Cell Proliferation Assay kit (Promega).
# LNCaP cells = assay: MTS cell survival assay, LNCaP cells over-expressing FOXC2; format: cell-based, human; conditions: LNCaP cells with FOXC2 expression
# Source text: Since FOXC2 is induced downstream of several different EMT inducers, and is by itself capable of potentiating the effects of multiple independent EMT signals (Taube et al., 2010), it was queried how ectopic expression of FOXC2 would impact the behavior of epithelial-like LNCaP cells, which are androgen-dependent. […] Again, FOXC2-induced EMT was associated with a reduction in PSA-promoter activity (as determined by loss in GFP) (FIG. 3A-lower panel), as well as loss in AR expression (FIGS. 3B,C).
# as §1
# DU145 cells [3] = assay: DU145 subcutaneous tumors in NOD/SCID mice; format: in vivo; conditions: subcutaneous dosing 5 days/week; SB203580 0.2 μmols per mouse, Enzalutamide 10 mg/kg; vs vehicle
# Procedure: To investigate the effect of inhibition of FOXC2-dependent EMT/CSC attributes on tumor formation in vivo, NOD/SCID mice were subcutaneously injected with DU145 cells and began treatment in vivo, after formation of palpable tumors.
# Immediately after sacrificing the mice, ˜100 μl blood was isolated via venipuncture in EDTA-treated collection tubes and stored on ice. Within 30 minutes, the blood was spun down at 1200 rpm for 5 minutes, and the pellet resuspended in 1 ml ACK-lysing buffer (Life Tech) and further incubated for 3-5 minutes. Cells were washed once with PBS, resuspended in RPMI with 10% FBS and pen/strep, and cultured on 10 cm tissue culture dishes. RFP-positive colonies (originating from the labeled DU145 cells injected into mice) were counted after 3-4 days in culture and quantified.
# ˜4 week-old male NOD.CB17-Prkdcscid/J mice were purchased from the Jackson Laboratory (Maine, USA). […] Once palpable tumors were discernable, tumor-bearing mice were randomly segregated into 4 groups, and drug treatment was initiated every 24 hours for 5 days/week. […] Investigators were blinded to the group allocation while assessing experimental outcomes. At the end of the treatment period, tumors were excised, average diameter calculated using calipers, and tumor weight noted. […]
# DU145 cells [4] = conditions: parental DU145 cells, even at 10 μM; cited from earlier work
# DU145 cells [5] = assay: Morphology and marker expression (qRTPCR, immunoblotting, IF) in DU145 cells; format: cell-based, human; conditions: DU145, LY364947 1 μM
# Procedure: (§2) Cell lines: Authenticated LNCaP, DU145, and PC3 cells were procured from ATCC and cultured in RPMI with 10% fetal bovine serum (FBS) with penicillin/streptomycin. Cells overexpressing EMT transcription factors and shRNA were also cultured in the same media. HEK293T cells were cultured in DMEM with 10% FBS and penicillin/streptomycin. All cell lines used for this study were recently confirmed negative for mycoplasma contamination.
# as §1
# DU145 cells [6] = assay: Tumorsphere assay, DU145 cells; format: cell-based, human; conditions: DU145, LY364947 1 μM
# Procedure: as §2, §1
# HMLER-Snail cells = assay: Sphere formation in ultra-low attachment plates, HMLER-Snail cells; format: cell-based; conditions: Homo sapiens, cultured 7-10 days, spheres >75 μm, read-out: Concentration of the drug that induced 50% reduction in sphere formation
# Procedure: (§3) (A) HMLER-Snail cells were treated with various p38 inhibitors. Cells were seeded in ultra-low attachment plates and cultured for 7-10 days. Spheres with a diameter greater than […] were counted. The data are reported as the number of spheres formed/1000 seeded cells±SEM. […] (B) SUM159 cells were treated with various p38 inhibitors. Cells were seeded in ultra-low attachment plates and cultured for 7-10 days. Spheres with a diameter greater than 75 μm were counted. The data are reported as the number of spheres formed/1000 seeded cells±SEM. […] (C) HMLE-Snail cells were treated with various p38 inhibitors. Cells were seeded in ultra-low attachment plates and cultured for 7-10 days. Spheres with a diameter greater than 75 μm were counted. The data are reported as the number of spheres formed/1000 seeded cells±SEM. […] (D) Western blots of HMLER-Snail cell treatment with various p38 inhibitors on Day 2 of treatment.
# SUM159 cells = assay: Sphere formation in ultra-low attachment plates, SUM159 cells; format: cell-based; conditions: Homo sapiens, cultured 7-10 days, read-out: Concentration of the drug that induced 50% reduction in sphere formation
# Procedure: as §3
# HMLE-Snail cells = assay: Sphere formation in ultra-low attachment plates, HMLE-Snail cells; format: cell-based, human; conditions: cultured 7-10 days; for IC50: Homo sapiens, read-out: Concentration of the drug that induced 50% reduction in sphere formation
# Procedure: as §3
# FOXC2 = FOXC2 protein levels by immunoblotting in mammary cell lines; format: cell-based, human; conditions: pre-treatment with 10 μM MG132
# Procedure: Immortalized human mammary epithelial (HMLE) cells expressing empty vector (pWZL), Snail, Twist, Goosecoid (GSC), or an activated form of TGFβ1, V12H-Ras-transformed HMLE (HMLER) and HMLER-FOXC2 cells were maintained as previously described (Elenbaas et al., 2001) For 4-hydroxy-tamoxifen (4-OHT) treatment, HMLE-Snail-ER or HMLE-Twist-ER cells were exposed to 20 nM 4-OHT for the indicated number of days. MCF7, MDA-MB-231 and SUM159 human breast cancer cells and the 4T1 mouse mammary carcinoma cells were cultured as described. Human non-tumorigenic MCF10A cells were cultured as described (Hollier et al., 2013), and treated with 2.5 ng/ml TGFβ1 for 3 days to elicit EMT.
# Immunoblotting and immunofluorescence (Mani et al., 2008) were performed as previously described. Primary antibodies were as follows: β-actin (Sigma, St Louis, Mo., USA; A3853), mouse anti-human FOXC2 (Dr. Naoyuki Miura, Hamamatsu University School of Medicine, Japan), goat polyclonal anti-FOXC2 (Santa Cruz Biotechnology, Dallas, Tex., USA; sc-21397), p-p38 (Cell Signaling, Danvers, Mass., USA; 4511), p38 (Cell Signaling; 9211), E-cadherin (BD Biosciences, San Jose, Calif., USA; 61081), fibronectin (BD Biosciences; 610077), vimentin (Novus Biologicals, Littleton, Colo., USA; NB200-623), ZEB1 (Novus Biologicals; NBP1-05987), and HA (Covance, Princeton, N.J., USA; MMS-101P).
# FOXC2 protein = assay: Western blots of FOXC2 protein in HMLER-Snail cells; format: cell-based; conditions: Homo sapiens, 48 h, Day 2 of treatment, read-out: Concentration of the drug that induced 50% reduction in FOXC2 protein
# Procedure: as §3
# [7] = imatinib 5 μM + compound 6.6 μM (dexamethasone 50 nM), 3 days pretreatment + 1 day
structure (smiles),measurement,setting,value
CNCc1ccc(-c2[nH]c3cc(F)cc4c3c2CCNC4=O)cc1 [AG014699],Imatinib-induced leukemic cell cluster formation,[1]; [7],eliminated the leukemic cell clusters by eliciting toxicity toward clustered leukemic cells
O=C(c1cc(Cc2n[nH]c(=O)c3ccccc23)ccc1F)N1CCN(C(=O)C2CC2)CC1 [AZD2281],Imatinib-induced leukemic cell cluster formation,[1]; [7],eliminated the leukemic cell clusters by eliciting toxicity toward clustered leukemic cells
CN1CCN(c2ccc3nc(-c4c(N)c5c(F)cccc5[nH]c4=O)[nH]c3c2)CC1 [CHIR258],Imatinib-induced leukemic cell cluster formation,[1],eliminated the leukemic cell clusters by eliciting toxicity toward clustered leukemic cells
Cc1c[nH]c(-c2cnc(NCCNc3ccc(C#N)cn3)nc2-c2ccc(Cl)cc2Cl)n1 [CHIR99021],Imatinib-induced leukemic cell cluster formation,[1]; [7],directly prevented imatinib-induced leukemic cell cluster formation
COc1cc2c(cc1OC)[C@@H]1C(=O)c3ccc4c(c3O[C@@H]1CO2)C=CC(C)(C)O4 [DEGUELIN],Imatinib-induced leukemic cell cluster formation,[1]; [7],directly prevented imatinib-induced leukemic cell cluster formation
CC(=O)O[C@@]12CO[C@@H]1C[C@H](O)[C@@]1(C)C(=O)[C@H](O)C3=C(C)[C@@H](OC(=O)[C@H](O)[C@@H](NC(=O)OC(C)(C)C)c4ccccc4)C[C@@](O)([C@@H](OC(=O)c4ccccc4)[C@H]21)C3(C)C [Docetaxel],Susceptibility of cells to the drug (cell survival),"DU145 cells [2]; DU145 with loss of FOXC2 expression, 100 nM Docetaxel",more susceptible
same,Resistance of cells to the drug (cell survival),LNCaP cells,increasingly resistant
CNC(=O)c1ccc(N2C(=S)N(c3ccc(C#N)c(C(F)(F)F)c3)C(=O)C2(C)C)cc1F [Enzalutamide],Sensitivity of cells to the drug (cell survival),"DU145 cells [2]; DU145 with FOXC2 suppression, 100 nM Enzalutamide",more sensitive
same,Resistance of cells to the drug (cell survival),LNCaP cells,increasingly resistant
same,Tumor size (volume and weight),DU145 cells [3],no appreciable change in tumor size
same,Sensitivity of cells to the drug,DU145 cells [4],insensitive
c1ccc(-c2[nH]ncc2-c2ccnc3ccccc23)nc1 [LY364947],FOXC2 expression and p38 signaling,DU145 cells [5],concomitant loss in FOXC2 expression and p38 signaling
same,Tumorsphere-forming capacity,DU145 cells [6],markedly reduced tumorsphere-forming capacity
CC(C)(C)Cn1c(N)nc2ccc(-c3[nH]c(C(C)(C)C)nc3-c3ccc(F)cc3)nc21 [LY2228820],IC50,HMLER-Snail cells,0.01 µM
same,IC50,SUM159 cells,0.3 µM
same,IC50,HMLE-Snail cells,3 µM
CC(C)C[C@@H](C=O)NC(=O)[C@H](CC(C)C)NC(=O)[C@H](CC(C)C)NC(=O)OCc1ccccc1 [MG132] (Cbz-Leu-Leu-Leu-aldehyde),Proteolytic degradation of FOXC2 following SB203580 treatment,FOXC2,rescued the proteolytic degradation of FOXC2
CNC(=O)c1ccc(C)c(-n2c(C)cc(OCc3ccc(F)cc3F)c(Br)c2=O)c1 [PH797804],IC50,HMLER-Snail cells,0.01 µM
same,IC50,SUM159 cells,0.1 µM
same,IC50,HMLE-Snail cells,0.3 µM
same,IC50,FOXC2 protein,0.05 µM
Cc1ccc([N+](=O)[O-])cc1S(=O)(=O)N(C)/N=C/c1cnc2ccc(Br)cn12 [PIK75],Imatinib-induced leukemic cell cluster formation,[1]; [7],eliminated the leukemic cell clusters by eliciting toxicity toward clustered leukemic cells
"Oc1ccc(-c2nc(-c3ccc(F)cc3)c(-c3ccncc3)[nH]2)cc1 [SB202190, 4-(4-fluorophenyl)-2-(4-hydroxyphenyl)-5-(4-pyridyl)-1H-imidazole]",Imatinib-induced leukemic cell cluster formation,[1]; [7],directly prevented imatinib-induced leukemic cell cluster formation
O=C1NC(=O)c2c1c1c3ccccc3n3c1c1c2c2ccccc2n1C1CCC3O1 [SB218078],Imatinib-induced leukemic cell cluster formation,[1]; [7],directly prevented imatinib-induced leukemic cell cluster formation
NC(=O)c1ccc(N(C(N)=O)c2c(F)cccc2F)nc1-c1ccc(F)cc1F [VX-702],IC50,HMLER-Snail cells,50 µM
same,IC50,SUM159 cells,50 µM
same,Inhibition of sphere formation,HMLE-Snail cells,did not inhibit sphere formation
same,Imatinib-induced leukemic cell cluster formation,[1]; [7],directly prevented imatinib-induced leukemic cell cluster formation
C[C@@H](N)[C@H]1CC[C@H](C(=O)Nc2ccncc2)CC1 [Y-27632],Imatinib-induced leukemic cell cluster formation,[1]; [7],directly prevented imatinib-induced leukemic cell cluster formation
Cc1ccc(NC(=O)c2ccc(CN3CCN(C)CC3)cc2)cc1Nc1nccc(-c2cccnc2)n1 [imatinib],Phosphorylation of PDGFR-α/β,MSCs,reduced phosphorylation of PDGFR-α/β
same,Phosphorylation of ATF2,MSCs; vs control,higher phosphorylation of ATF2 than control
